A word on the LD50: it is the dose at which mortality reaches 50%.

Each structure is given as a SMILES string.

Data set [1] has as its system cerebral blood circulation. The data set is described as follows: Cerebral blood circulation after intraduodenal administration to narcotized cats. In kind it is in vivo, cat.
A short description of data set [2]: Toxicity in the mouse (LD50). The following applies: in vivo, ip, mice, intraperitoneally, read-out: LD50 -value for mice. How it is done: (§1) The toxicity was determined as LD50 --range or as LD50 according to Litchfield and Wilcoxon ("J. Pharmacol. exp. Ther." 97 (1949), page 399) in the mouse.
For data set [3], the system named is mouse. The data set is described as follows: Toxicity in the mouse (LD50). Particulars: in vivo, ip. How it is done:
as §1

The test system of data set [4] is bronchospasm against acetylcholine. As to the kind of experiment: Broncholytic effect at the narcotized guinea-pig, bronchospasm by acetylcholine. In kind it is in vivo. The following applies: Cavia porcellus, iv, 2 min, 2 min. i.p. As for the experimental part: (§2) 2. Broncholytic effect at the narcotized guinea-pig
(§3) This test was performed according to H. Konsett and R. Rossler ("Archiv exp. Path. Pharmak." vol. 195 (1940), page 71).

Data set [5] relates to bronchospasm against histamine. As to the kind of experiment: Broncholytic effect at the narcotized guinea-pig, bronchospasm by histamine. The data set is classed as in vivo. The following applies: Cavia porcellus, iv, 2 min, 2 min. i.p. How it is done:
as §2, §3

In data set [6] the test system is mouse. The following applies: known compounds; cited from earlier work.
Data set [7] deals with muscular blood perfusion. As to the kind of experiment: Muscular blood perfusion by fluvography at the cat (i.v.). In kind it is in vivo. How it is done: (§4) Animal tests were carried out with various oxoalkylxanthine derivatives, in which the toxicity in the mouse, the increase of cerebral and muscular blood perfusion at the cat and the fibrinolytic effect in vitro in the Hanging-Clot-test were measured. Furthermore the broncholytic effect of various compounds was tested.
(§5) 1. Cerebral and muscular blood perfusion by fluvography
(§6) These tests were performed at the cat according to K. Popendiker, I. Boksay and V. Bollmann ("Arzneimittel Forschung" vol. 21 (1971), page 1160).
(§7) The values obtained in the mentioned test 1 are given as Δλ and as half-life values in Table 2 and the results of tests 2 to 5 are enumerated in Table 3. In Table 2 Δλ is the change of blood perfusion.

For data set [8], the system named is cerebral blood perfusion. As to the kind of experiment: Cerebral blood perfusion by fluvography at the cat (i.v.). In kind it is in vivo. As for the experimental part:
as §4, §5, §6, §7

For data set [9], the system named is blood vascular system. The following applies: known compounds; cited from earlier work.
The subject of data set [10] is isolated trancheal chain. The data set is described as follows: Broncholytic effect at the isolated tracheal chain (isoprenaline reaction). How it is done: 3. Broncholytic effect at the isolated trancheal chain
This test was performed according to J. C. Castillo and E. J. de Beer ("J. Pharm. Ther." vol. 90 (1947), page 104).

Data set [11] concerns human blood. As to the kind of experiment: Fibrinolytic effect in vitro, Hanging-Clot-test. In kind it is biochemical. The following applies: human blood. How it is done: This effect was measured by the Hanging-Clot-test according to K. N. von Kaulla ("Journ. med. Chem." vol. 8 (1965), page 164) in using human blood. The incubation time was 24 or 48 hours.

For `CC(=O)CCCCn1cnc2c1c(=O)[nH]c(=O)n2C` [Example 11, 3-methyl-7-(5-oxohexyl)-xanthine], in data set [1], the “Increase in cerebral blood circulation compared with ethylene-diamine-theophylline” value was “by several times superior”; the “Increase in the cerebral blood circulation” value is “significant and permanent increase in the cerebral blood circulation”. Besides, the LD50 in data set [2] was 1000 to 1500 mg/kg. In data set [3], the “Compatibility compared with ethylene-diamine-theophylline” value is reported as “much more compatible”.
Turning to `CC(=O)CCCCn1c(=O)c2c(ncn2C)n(C)c1=O` [Sample 8, 1-(5-Oxohexyl)-3,7-dimethylxanthine, reference compound], the figures for the change in vivo at 3 mg/kg in data set [4] (3 mg/kg i.v.) and in data set [5] (3 mg/kg i.v.) were -15% and -4%, respectively. Further, the change in vivo at 10 mg/kg in data set [4] (10 mg/kg i.v.) is -41%; in data set [5] (10 mg/kg i.v.) it was -83%. Besides, the results for the change in vivo at 20 mg/kg in data set [4] (20 mg/kg i.v.) and in [5] (20 mg/kg i.v.) were -72% and -100%, respectively. Besides, the change in vivo at 5 mg/kg in data set [5] (5 mg/kg i.v.) is -94%. Besides, the Toxicity entry in data set [6] was “low toxicity”. Besides, the “Muscular blood perfusion half-life” value in data set [7] (1 mg/kg i.v.) is 1.10 min; in data set [7] (5 mg/kg i.v.), 3.30 min; in [7] (10 mg/kg i.v.), 2.80 min; in [7] (20 mg/kg i.v.), > 15 min. The “Muscular blood perfusion Δλ (change of blood perfusion)” value in data set [7] (1 mg/kg i.v.) is “+0.02”; in data set [7] (5 mg/kg i.v.) it was “+0.03”; in data set [7] (10 mg/kg i.v.), “+0.15”; in [7] (20 mg/kg i.v.) it was “+1.38”. Moreover, the “Cerebral blood perfusion half-life” value in data set [8] (1 mg/kg i.v.) is 0.9 min; in [8] (5 mg/kg i.v.), 2.4 min; in data set [8] (10 mg/kg i.v.) it was 8.6 min. In addition, the results for the “Cerebral blood perfusion Δλ (change of blood perfusion)” value in data set [8] (1 mg/kg i.v.), in [8] (5 mg/kg i.v.) and in data set [8] (10 mg/kg i.v.) were “+0.44”, “+0.86” and “+1.15”, respectively. In addition, in data set [9], the Vascular dilatory action entry was “vaso-dilatory effect”. For the same molecule, the “Inhibition of isoprenaline reaction in %” value in data set [10] (concentration 3 × 10^-5) stood at 30%; in data set [10] (concentration 3 × 10^-6), 0%; in [10] (concentration 10^-4) it was 89%; in data set [10] (concentration 10^-5), 5%. Also, the figures for the “Minimum concentration for partial lysis” value in data set [11] (24 hours incubation) and in data set [11] (48 hours incubation (bracket)) were 100 mmol and 50 mmol, respectively.

Source of the values: patent US4289776A, “Xanthine derivatives” (Hoechst Aktiengesellschaft, priority 1973, dated 1981).
